Read-outs that look alike come from different tables or passages of the source.
What was measured:
[1] = test system: HMPV clinical isolate TN/1501/A1; assay: HMPV antiviral assay Method-B (clinical isolate TN/1501/A1 in LLC-MK2 cells, ATP-Lite readout); format: cell-based, Human metapneumovirus (HMPV); conditions: human metapneumovirus, LLC-MK2, 144 h, hMPV WT1501 (clinical isolate TN/1501/A1), 6 days
Outline: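 EC50 derived by four-parameter logistic fit of percent cell health, measured by ATP-Lite luminescence and normalised to virus-only and uninfected-cell controls. Compounds run in duplicate from 10 μM top, 3-fold, 10 points. Infection: LLC-MK2 cells, MOI 0.014, 2 μg/mL final TPCK-trypsin, serum-free, 6 days at 37° C.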

[2] = test system: genotype A, "Long" strain RSV; assay: RSV-A assay (CPE protection in Hep-2 cells, ATPlite readout); format: cell-based, Human respiratory syncytial virus (HRSV); conditions: genotype A “Long” strain RSV, MOI 0.1, CPE protection, read-out: Human RSV-A (“Long”)
Outline: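 Hep-2 cells (8,000/well) infected with RSV Long strain at MOI 0.1 in the presence of 2-fold compound dilutions in duplicate. After 5 days, cell viability measured by ATPlite luminescence, normalized between virus-only and uninfected cell controls; EC50 reported.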

[3] = human respiratory syncytial virus

EC50 [1]	EC50 [2, 3]	EC50 [2]	SMILES
> 500 nM	< 200 nM		COc1cc(C(=O)NC[C@](O)(c2cc3c(c(-c4cnc(Cl)c(Cl)c4)n2)OC[C@]3(C)C(N)=O)C(F)(F)F)cc2cn(C(F)F)nc12 [Example 589]
> 500 nM	< 200 nM		C[C@]1(C(N)=O)COc2c1cc([C@@](O)(CNC(=O)c1cc(O)c3nn(C4CC4)cc3c1)C(F)(F)F)nc2-c1ccc(F)cc1 [Example 590]
< 500 nM	< 200 nM		COc1cc(C(=O)NC[C@](O)(c2cc3c(c(-c4ccc5c(c4)OC(F)(F)O5)n2)OC[C@]3(C)C(N)=O)C(F)(F)F)cc2cn(C(F)F)nc12 [Example 591]
< 500 nM	< 200 nM		C[C@]1(C(N)=O)COc2c1cc([C@@](O)(CNC(=O)c1ccn3nc(C4CC4)cc3c1)C(F)(F)F)nc2-c1ccc2c(c1)OC(F)(F)O2 [Example 592]
< 500 nM	< 200 nM		COc1cc(C(=O)NC[C@](O)(c2cc3c(c(-c4csc5c(F)cccc45)n2)OC[C@]3(C)C(N)=O)C2CC2)cc2cn(C3CC3)nc12 [Example 593]
< 500 nM	< 200 nM		COc1cc(C(=O)NC[C@](O)(c2cc3c(c(-c4csc5c(F)cccc45)n2)OC[C@]3(C)C(N)=O)C2CC2)cc2cn(C(F)F)nc12 [Example 594]
< 500 nM	< 200 nM		COc1cc(C(=O)NC[C@](O)(c2cc3c(c(-c4csc5c(F)cccc45)n2)OC[C@]3(C)C(N)=O)C2CC2)cc2cc(Cl)c(C)nc12 [Example 595]
< 500 nM	< 200 nM		COc1cc(C(=O)NC[C@](O)(c2cc3c(c(-c4csc5c(F)cccc45)n2)OC[C@]3(C)C(N)=O)C(F)(F)F)cc2cc(Cl)c(C)nc12 [Example 596]
> 500 nM	< 200 nM		C[C@]1(C(N)=O)COc2c1cc([C@@](O)(CNC(=O)c1cc(OC3CC3)n3nc(C4CC4)cc3c1)C(F)(F)F)nc2-c1csc2c(F)cccc12 [Example 597]
< 500 nM	< 200 nM		COc1cc(C(=O)NC[C@](O)(c2cc3c(c(-c4csc5c(F)cccc45)n2)OC[C@]3(C)C(N)=O)C(F)(F)F)cc2cc(C3CC3)nn12 [Example 598]
< 500 nM	< 200 nM		COc1cc(C(=O)NC[C@](O)(c2cc3c(c(-c4csc5c(F)cccc45)n2)OC[C@]3(C)C(N)=O)C(F)(F)F)cc2cn(C3(F)CC3)nc12 [Example 599]
< 500 nM	< 200 nM		COc1cc(C(=O)NC[C@](O)(c2cc3c(c(-c4csc5c(F)cccc45)n2)OC[C@]3(C)C(N)=O)C(F)(F)F)cc2cn(C(F)F)nc12 [Example 600]
< 500 nM	< 200 nM		Cc1cnc2c(Cl)cc(C(=O)NC[C@](O)(c3cc4c(c(-c5csc6c(F)cccc56)n3)OC[C@]4(C)C(N)=O)C(F)(F)F)cc2c1 [Example 601]
< 500 nM	< 200 nM		COc1cc(C(=O)NC[C@](O)(c2cc3c(c(-c4csc5c(F)cccc45)n2)OC[C@]3(C)C(N)=O)C(F)(F)F)cc2cc(Br)cnc12 [Example 602]
> 500 nM	< 200 nM		Cc1nc2c(OC3CC3)cc(C(=O)NC[C@](O)(c3cc4c(c(-c5csc6c(F)cccc56)n3)OC[C@]4(C)C(N)=O)C(F)(F)F)cc2cc1Cl [Example 603]

Further lines, the compound ahead of its results:

SMILES	EC50 [1]	EC50 [2, 3]	EC50 [2]
COc1cc(C(=O)NC[C@](O)(c2cc3c(c(-c4ccc(F)c(Cl)c4F)n2)OC[C@]3(C)C(N)=O)C2CC2)cc2cc(Cl)c(C)nc12 [Example 557]	< 500 nM	< 200 nM	
Cc1cnc2c(OC(F)F)cc(C(=O)NC[C@](O)(c3cc4c(c(-c5ccc(F)c(Cl)c5F)n3)OC[C@]4(C)C(N)=O)C3CC3)cc2c1 [Example 558]	< 500 nM	< 200 nM	
C[C@]1(C(N)=O)COc2c1cc([C@@](O)(CNC(=O)c1cc(Cl)c3nn(C4CC4)cc3c1)C1CC1)nc2-c1ccc(F)c(Cl)c1F [Example 559]	< 500 nM	< 200 nM	
C[C@]1(C(N)=O)COc2c1cc([C@@](O)(CNC(=O)c1cc(OC3CC3)c3nc(C4CC4)cn3c1)C1CC1)nc2-c1ccc(F)c(Cl)c1F [Example 560]	< 500 nM	< 200 nM	
COc1cc(C(=O)NC[C@](O)(c2cc3c(c(-c4ccc(F)c(Cl)c4F)n2)OC[C@]3(C)C(N)=O)C2CC2)cc2cc(Br)cnc12 [Example 561]	< 500 nM	< 200 nM	
COc1cc(C(=O)NC[C@](O)(c2cc3c(c(-c4ccc(F)c(F)c4Cl)n2)OC[C@]3(C)C(N)=O)C2CC2)cc2cn(C3(F)CC3)nc12 [Example 562]	< 500 nM	< 200 nM	
COc1cc(C(=O)NC[C@](O)(c2cc3c(c(-c4ccc(F)c(F)c4Cl)n2)OC[C@]3(C)C(N)=O)C2CC2)cc2cn(C(F)F)nc12 [Example 563]	< 500 nM	< 200 nM	
C[C@]1(C(N)=O)COc2c1cc([C@@](O)(CNC(=O)c1cc(Cl)c3nn(C4CC4)cc3c1)C1CC1)nc2-c1ccc(F)c(F)c1Cl [Example 564]	< 500 nM	< 200 nM	
COc1cc(C(=O)NC[C@](O)(c2cc3c(c(-c4ccc(F)c(F)c4Cl)n2)OC[C@]3(C)C(N)=O)C2CC2)cc2cc(Cl)c(C)nc12 [Example 565]	< 500 nM	< 200 nM	
Cc1cnc2c(OC(F)F)cc(C(=O)NC[C@](O)(c3cc4c(c(-c5ccc(F)c(F)c5Cl)n3)OC[C@]4(C)C(N)=O)C3CC3)cc2c1 [Example 566]	< 500 nM	< 200 nM	
C[C@]1(C(N)=O)COc2c1cc([C@@](O)(CNC(=O)c1cc(OC3CC3)c3nn(C(F)F)cc3c1)C(F)(F)F)nc2-c1ccc(F)c(Cl)c1F [Example 567]	< 500 nM	< 200 nM	
C[C@]1(C(N)=O)COc2c1cc([C@@](O)(CNC(=O)c1cc(OC3CC3)c3nn(C(F)F)cc3c1)C1CC1)nc2-c1ccc(F)c(Cl)c1F [Example 568]	< 500 nM	< 200 nM	
C[C@]1(C(N)=O)COc2c1cc([C@@](O)(CNC(=O)c1cc(OC3CC3)c3nn(C(F)F)cc3c1)C(F)(F)F)nc2-c1ccc2c(c1)OC(F)(F)O2 [Example 569]	< 500 nM	< 200 nM	
C[C@]1(C(N)=O)COc2c1cc([C@@](O)(CNC(=O)c1cc(Cl)c3nn(C(F)F)cc3c1)C1CC1)nc2-c1ccc(F)c(Cl)c1F [Example 570]	< 500 nM	< 200 nM	
C[C@]1(C(N)=O)COc2c1cc([C@@](O)(CNC(=O)c1cc(F)c3nn(C(F)F)cc3c1)C1CC1)nc2-c1ccc(F)c(Cl)c1F [Example 571]	< 500 nM	< 200 nM	
COc1cc(C(=O)NC[C@](O)(c2cc3c(c(-c4ccc(F)c(Cl)c4F)n2)OC[C@]3(C)C(N)=O)C2CC2)cc2cc(C(F)(F)F)cnc12 [Example 572]	< 500 nM	< 200 nM	
CC[C@]1(C(N)=O)COc2c1cc([C@@](O)(CNC(=O)c1cc(OC)c3nn(C4CC4)cc3c1)C(F)(F)F)nc2-c1ccc(F)cc1 [Example 573]	< 500 nM		< 200 nM
COc1cc(C(=O)NC[C@](O)(c2cc3c(c(-c4ccc(F)c(Cl)c4)n2)OC[C@]3(C)C(N)=O)C2CC2)cc2cn(C(F)F)nc12 [Example 574]	< 500 nM	< 200 nM	
COc1cc(C(=O)NC[C@](O)(c2cc3c(c(-c4ccc(F)c(Cl)c4)n2)OC[C@]3(C)C(N)=O)C2CC2)cc2cn(C3CC3)nc12 [Example 575]	< 500 nM	< 200 nM	
COc1cc(C(=O)NC[C@](O)(c2cc3c(c(-c4ccc(C#N)c(Cl)c4)n2)OC[C@]3(C)C(N)=O)C(F)(F)F)cc2cn(C(F)F)nc12 [Example 576]	> 500 nM	< 200 nM	
COc1cc(C(=O)NC[C@](O)(c2cc3c(c(-c4ccc(C#N)c(Cl)c4)n2)OC[C@]3(C)C(N)=O)C(F)(F)F)cc2cc(Cl)c(C)nc12 [Example 578]	> 500 nM	< 200 nM	
COc1cc(C(=O)NC[C@](O)(c2cc3c(c(-c4ccc(C(F)(F)F)c(Cl)c4)n2)OC[C@]3(C)C(N)=O)C(F)(F)F)cc2cn(C3CC3)nc12 [Example 579]	> 500 nM	< 200 nM	
COc1cc(C(=O)NC[C@](O)(c2cc3c(c(-c4ccc(C(F)(F)F)c(Cl)c4)n2)OC[C@]3(C)C(N)=O)C(F)(F)F)cc2cn(C(F)F)nc12 [Example 580]	> 500 nM	< 200 nM	
COc1cc(C(=O)NC[C@](O)(c2cc3c(c(-c4ccc(C(F)(F)F)c(Cl)c4)n2)OC[C@]3(C)C(N)=O)C(F)(F)F)cc2cc(Cl)c(C)nc12 [Example 581]	> 500 nM	< 200 nM	
COc1cc(C(=O)NC[C@](O)(c2cc3c(c(-c4cnc(C#N)c(Cl)c4)n2)OC[C@]3(C)C(N)=O)C(F)(F)F)cc2cn(C(F)F)nc12 [Example 582]	> 500 nM	< 200 nM	
COc1cc(C(=O)NC[C@](O)(c2cc3c(c(-c4cnc(C#N)c(Cl)c4)n2)OC[C@]3(C)C(N)=O)C(F)(F)F)cc2cn(C3CC3)nc12 [Example 583]	> 500 nM	< 200 nM	
COc1cc(C(=O)NC[C@](O)(c2cc3c(c(-c4ccc(Cl)cc4)n2)OC[C@]3(C)C(N)=O)C(F)(F)F)cc2cn(C3CC3)nc12 [Example 585]	> 500 nM	< 200 nM	
COc1cc(C(=O)NC[C@](O)(c2cc3c(c(-c4ccc(Cl)cc4)n2)OC[C@]3(C)C(N)=O)C(F)(F)F)cc2cn(C(F)F)nc12 [Example 586]	> 500 nM	< 200 nM	
COc1cc(C(=O)NC[C@](O)(c2cc3c(c(-c4cnc(Cl)c(Cl)c4)n2)OC[C@]3(C)C(N)=O)C(F)(F)F)cc2cn(C3CC3)nc12 [Example 587]	> 500 nM	< 200 nM	
COc1cc(C(=O)NC[C@](O)(c2cc3c(c(-c4cnc(Cl)c(Cl)c4)n2)OC[C@]3(C)C(N)=O)C(F)(F)F)cc2cc(Cl)c(C)nc12 [Example 588]	> 500 nM	< 200 nM	

From patent US12612412B2, “Antiviral heterocyclic compounds” (Enanta Pharmaceuticals, Inc., priority 2021, dated 2026)
